Where only a bound is given, the exact number is not on record here.

For orientation: AC50 means the concentration at which the activity in the assay is half-maximal.

In one experiment the target is T1, Adenosine receptor A1 (Homo sapiens, UniProt P30542).
T1 sequence (P30542 whole entry): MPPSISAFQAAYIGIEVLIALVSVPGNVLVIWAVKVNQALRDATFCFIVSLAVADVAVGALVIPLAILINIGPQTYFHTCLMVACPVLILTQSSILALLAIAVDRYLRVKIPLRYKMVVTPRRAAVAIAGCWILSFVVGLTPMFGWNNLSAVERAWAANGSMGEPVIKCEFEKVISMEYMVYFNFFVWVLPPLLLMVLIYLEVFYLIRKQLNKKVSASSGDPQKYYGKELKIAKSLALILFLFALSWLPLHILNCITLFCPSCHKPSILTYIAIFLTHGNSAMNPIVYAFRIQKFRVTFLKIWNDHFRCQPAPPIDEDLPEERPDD

In experiment [1] the target is T2, Alpha-2A adrenergic receptor (Homo sapiens, UniProt P08913).
T2 sequence (P08913 whole entry): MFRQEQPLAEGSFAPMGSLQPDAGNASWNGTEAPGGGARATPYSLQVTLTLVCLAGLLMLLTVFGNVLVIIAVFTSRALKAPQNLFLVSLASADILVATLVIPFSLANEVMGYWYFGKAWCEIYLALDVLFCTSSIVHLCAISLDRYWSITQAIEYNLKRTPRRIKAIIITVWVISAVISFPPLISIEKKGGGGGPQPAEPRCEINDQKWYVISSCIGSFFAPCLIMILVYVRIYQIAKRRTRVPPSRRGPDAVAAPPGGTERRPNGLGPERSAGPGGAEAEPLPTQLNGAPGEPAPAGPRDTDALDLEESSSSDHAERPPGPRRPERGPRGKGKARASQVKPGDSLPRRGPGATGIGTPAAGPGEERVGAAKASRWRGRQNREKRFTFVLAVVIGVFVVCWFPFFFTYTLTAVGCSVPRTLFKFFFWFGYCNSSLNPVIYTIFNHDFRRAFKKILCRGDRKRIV
It counts as functional, cell-based.

Experiment [2] deals with T3, Alpha-2C adrenergic receptor (Homo sapiens, UniProt P18825).
T3 sequence (P18825 whole entry): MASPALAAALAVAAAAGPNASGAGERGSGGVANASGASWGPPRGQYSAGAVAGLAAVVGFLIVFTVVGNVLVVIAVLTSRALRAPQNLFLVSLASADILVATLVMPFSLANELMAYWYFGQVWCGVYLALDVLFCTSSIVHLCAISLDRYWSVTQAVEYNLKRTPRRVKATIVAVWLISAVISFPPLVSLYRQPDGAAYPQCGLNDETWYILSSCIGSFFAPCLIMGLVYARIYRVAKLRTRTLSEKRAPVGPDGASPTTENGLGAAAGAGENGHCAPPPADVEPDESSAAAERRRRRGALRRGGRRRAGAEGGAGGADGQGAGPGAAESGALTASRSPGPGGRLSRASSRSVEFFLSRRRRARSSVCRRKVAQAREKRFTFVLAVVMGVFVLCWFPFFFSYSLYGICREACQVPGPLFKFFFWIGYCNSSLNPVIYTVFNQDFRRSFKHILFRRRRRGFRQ
It counts as functional.

Experiment [3] has as its target Beta-1 adrenergic receptor (Homo sapiens, UniProt P08588). It counts as functional.
Another experiment deals with T4, B2 bradykinin receptor (Homo sapiens, UniProt P30411).
T4 sequence (P30411 whole entry): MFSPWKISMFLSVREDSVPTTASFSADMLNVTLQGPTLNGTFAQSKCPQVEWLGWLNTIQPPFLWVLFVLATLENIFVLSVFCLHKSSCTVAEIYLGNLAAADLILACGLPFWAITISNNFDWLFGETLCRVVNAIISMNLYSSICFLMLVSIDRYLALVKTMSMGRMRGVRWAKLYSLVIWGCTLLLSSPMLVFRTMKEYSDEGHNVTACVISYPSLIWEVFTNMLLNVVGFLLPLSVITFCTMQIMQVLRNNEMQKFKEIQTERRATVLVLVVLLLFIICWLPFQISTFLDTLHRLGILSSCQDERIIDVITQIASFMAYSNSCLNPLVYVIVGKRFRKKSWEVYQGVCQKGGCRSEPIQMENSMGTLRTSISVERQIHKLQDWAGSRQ

For experiment [4], the target named is Gamma-aminobutyric acid receptor subunit alpha-1 (Rattus norvegicus, UniProt P62813). It counts as functional.
In the next experiment the target is Melanocortin receptor 3 (Homo sapiens, UniProt P41968).
Experiment [5] concerns the target T5, Neuropeptide Y receptor type 1 (Homo sapiens, UniProt P25929).
T5 sequence (P25929 whole entry): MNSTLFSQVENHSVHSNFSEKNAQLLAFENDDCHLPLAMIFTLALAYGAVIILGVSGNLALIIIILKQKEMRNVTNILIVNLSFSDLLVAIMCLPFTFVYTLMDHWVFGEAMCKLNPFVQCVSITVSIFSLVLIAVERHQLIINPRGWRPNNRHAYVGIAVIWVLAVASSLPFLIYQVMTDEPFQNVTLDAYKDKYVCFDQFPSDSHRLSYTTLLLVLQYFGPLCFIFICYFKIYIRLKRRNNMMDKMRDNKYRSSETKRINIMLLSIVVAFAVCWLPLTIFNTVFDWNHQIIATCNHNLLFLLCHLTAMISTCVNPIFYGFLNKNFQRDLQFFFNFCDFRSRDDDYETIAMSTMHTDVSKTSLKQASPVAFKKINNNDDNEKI

The target of experiment [6] is Kappa-type opioid receptor (Homo sapiens, UniProt P41145).
In experiment [7] the target is 3',5'-cyclic-AMP phosphodiesterase 4D (Homo sapiens, UniProt Q08499). It counts as functional.
For experiment [8], the target named is cGMP-inhibited 3',5'-cyclic phosphodiesterase 3A (Homo sapiens, UniProt Q14432). It counts as functional.
The target of a further experiment is D(3) dopamine receptor (Homo sapiens, UniProt P35462).
Note: assay procedure not described here.

D(3) dopamine receptor, sequence (P35462 whole entry): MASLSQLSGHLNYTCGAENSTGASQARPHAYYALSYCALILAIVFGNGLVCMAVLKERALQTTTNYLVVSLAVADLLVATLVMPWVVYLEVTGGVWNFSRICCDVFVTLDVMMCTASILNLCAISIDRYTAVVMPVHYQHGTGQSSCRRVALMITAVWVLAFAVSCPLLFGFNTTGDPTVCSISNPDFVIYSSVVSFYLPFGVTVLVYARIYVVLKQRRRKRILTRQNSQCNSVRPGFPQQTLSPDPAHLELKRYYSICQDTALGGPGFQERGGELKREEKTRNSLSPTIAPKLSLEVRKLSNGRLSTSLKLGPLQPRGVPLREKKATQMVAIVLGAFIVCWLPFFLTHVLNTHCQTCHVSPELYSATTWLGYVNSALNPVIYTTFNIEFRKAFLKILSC
Gamma-aminobutyric acid receptor subunit alpha-1, sequence (P62813 whole entry): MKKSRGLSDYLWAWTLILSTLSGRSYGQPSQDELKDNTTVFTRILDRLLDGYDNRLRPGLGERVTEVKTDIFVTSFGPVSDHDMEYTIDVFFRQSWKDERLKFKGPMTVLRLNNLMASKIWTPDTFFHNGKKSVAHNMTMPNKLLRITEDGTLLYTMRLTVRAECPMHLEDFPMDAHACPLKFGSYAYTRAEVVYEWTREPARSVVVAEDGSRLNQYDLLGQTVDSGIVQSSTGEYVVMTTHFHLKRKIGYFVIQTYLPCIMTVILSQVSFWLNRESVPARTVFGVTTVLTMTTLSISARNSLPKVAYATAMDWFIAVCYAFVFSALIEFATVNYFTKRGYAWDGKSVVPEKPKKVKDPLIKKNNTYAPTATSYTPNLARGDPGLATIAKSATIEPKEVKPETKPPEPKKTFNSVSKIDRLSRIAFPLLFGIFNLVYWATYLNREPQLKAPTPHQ
Beta-1 adrenergic receptor, sequence (P08588 whole entry): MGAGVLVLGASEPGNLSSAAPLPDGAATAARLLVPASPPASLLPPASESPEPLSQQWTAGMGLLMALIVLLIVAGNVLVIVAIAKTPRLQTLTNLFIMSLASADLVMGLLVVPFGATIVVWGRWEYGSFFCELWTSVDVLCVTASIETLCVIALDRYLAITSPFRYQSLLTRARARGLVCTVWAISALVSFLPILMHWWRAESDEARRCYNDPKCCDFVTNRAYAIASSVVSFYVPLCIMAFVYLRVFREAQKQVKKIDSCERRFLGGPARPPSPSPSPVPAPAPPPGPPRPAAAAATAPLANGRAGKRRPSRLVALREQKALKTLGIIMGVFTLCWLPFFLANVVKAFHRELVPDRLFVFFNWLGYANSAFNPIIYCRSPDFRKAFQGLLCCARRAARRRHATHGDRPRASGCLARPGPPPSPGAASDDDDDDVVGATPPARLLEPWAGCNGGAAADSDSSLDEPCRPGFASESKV
cGMP-inhibited 3',5'-cyclic phosphodiesterase 3A, sequence (Q14432 whole entry): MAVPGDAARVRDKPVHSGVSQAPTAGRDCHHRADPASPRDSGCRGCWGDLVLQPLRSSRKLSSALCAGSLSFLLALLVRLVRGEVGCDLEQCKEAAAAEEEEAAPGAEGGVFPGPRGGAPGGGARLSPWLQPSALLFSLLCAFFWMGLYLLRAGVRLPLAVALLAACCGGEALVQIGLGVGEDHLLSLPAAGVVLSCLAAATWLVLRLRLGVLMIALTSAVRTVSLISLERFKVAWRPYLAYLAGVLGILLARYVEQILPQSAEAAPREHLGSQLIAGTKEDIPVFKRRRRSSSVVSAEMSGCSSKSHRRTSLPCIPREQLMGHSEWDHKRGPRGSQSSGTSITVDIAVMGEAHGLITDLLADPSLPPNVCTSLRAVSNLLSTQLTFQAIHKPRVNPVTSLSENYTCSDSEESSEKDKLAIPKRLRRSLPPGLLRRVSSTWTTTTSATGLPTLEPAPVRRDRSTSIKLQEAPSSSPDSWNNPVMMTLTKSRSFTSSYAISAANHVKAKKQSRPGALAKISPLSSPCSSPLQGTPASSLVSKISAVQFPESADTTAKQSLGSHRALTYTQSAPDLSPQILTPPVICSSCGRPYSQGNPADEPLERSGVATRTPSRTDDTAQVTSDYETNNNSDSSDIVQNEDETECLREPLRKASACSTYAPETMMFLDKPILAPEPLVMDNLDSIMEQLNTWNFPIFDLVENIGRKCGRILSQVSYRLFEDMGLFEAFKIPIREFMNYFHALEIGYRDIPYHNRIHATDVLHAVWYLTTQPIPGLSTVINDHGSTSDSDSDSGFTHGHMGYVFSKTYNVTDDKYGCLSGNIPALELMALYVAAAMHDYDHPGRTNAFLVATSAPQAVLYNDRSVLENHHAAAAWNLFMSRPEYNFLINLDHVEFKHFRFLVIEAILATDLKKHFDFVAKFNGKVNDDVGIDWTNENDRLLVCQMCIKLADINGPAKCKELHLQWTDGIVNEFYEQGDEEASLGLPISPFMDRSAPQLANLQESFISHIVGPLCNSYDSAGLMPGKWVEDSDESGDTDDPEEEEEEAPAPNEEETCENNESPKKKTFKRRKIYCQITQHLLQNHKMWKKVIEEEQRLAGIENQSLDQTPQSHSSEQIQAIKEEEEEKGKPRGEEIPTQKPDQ
Kappa-type opioid receptor, sequence (P41145 whole entry): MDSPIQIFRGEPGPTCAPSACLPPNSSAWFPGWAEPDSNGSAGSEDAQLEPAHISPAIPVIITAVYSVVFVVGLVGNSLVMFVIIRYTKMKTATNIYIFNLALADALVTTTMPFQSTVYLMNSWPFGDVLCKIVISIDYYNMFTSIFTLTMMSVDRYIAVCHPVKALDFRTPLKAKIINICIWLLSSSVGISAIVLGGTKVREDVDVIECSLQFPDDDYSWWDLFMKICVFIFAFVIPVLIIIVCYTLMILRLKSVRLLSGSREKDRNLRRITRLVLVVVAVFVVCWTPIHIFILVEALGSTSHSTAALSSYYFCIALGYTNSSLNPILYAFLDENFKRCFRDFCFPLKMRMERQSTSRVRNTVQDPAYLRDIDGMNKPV
Melanocortin receptor 3, sequence (P41968 whole entry): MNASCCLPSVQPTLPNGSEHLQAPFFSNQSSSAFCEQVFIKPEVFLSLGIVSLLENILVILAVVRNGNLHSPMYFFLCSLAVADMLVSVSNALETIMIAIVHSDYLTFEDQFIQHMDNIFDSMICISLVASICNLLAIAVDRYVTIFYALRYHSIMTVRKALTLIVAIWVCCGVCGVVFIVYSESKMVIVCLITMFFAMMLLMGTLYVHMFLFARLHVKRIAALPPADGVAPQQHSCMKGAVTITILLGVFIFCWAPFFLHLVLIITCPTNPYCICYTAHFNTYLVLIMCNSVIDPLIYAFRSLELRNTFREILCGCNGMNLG
3',5'-cyclic-AMP phosphodiesterase 4D, sequence (Q08499 whole entry): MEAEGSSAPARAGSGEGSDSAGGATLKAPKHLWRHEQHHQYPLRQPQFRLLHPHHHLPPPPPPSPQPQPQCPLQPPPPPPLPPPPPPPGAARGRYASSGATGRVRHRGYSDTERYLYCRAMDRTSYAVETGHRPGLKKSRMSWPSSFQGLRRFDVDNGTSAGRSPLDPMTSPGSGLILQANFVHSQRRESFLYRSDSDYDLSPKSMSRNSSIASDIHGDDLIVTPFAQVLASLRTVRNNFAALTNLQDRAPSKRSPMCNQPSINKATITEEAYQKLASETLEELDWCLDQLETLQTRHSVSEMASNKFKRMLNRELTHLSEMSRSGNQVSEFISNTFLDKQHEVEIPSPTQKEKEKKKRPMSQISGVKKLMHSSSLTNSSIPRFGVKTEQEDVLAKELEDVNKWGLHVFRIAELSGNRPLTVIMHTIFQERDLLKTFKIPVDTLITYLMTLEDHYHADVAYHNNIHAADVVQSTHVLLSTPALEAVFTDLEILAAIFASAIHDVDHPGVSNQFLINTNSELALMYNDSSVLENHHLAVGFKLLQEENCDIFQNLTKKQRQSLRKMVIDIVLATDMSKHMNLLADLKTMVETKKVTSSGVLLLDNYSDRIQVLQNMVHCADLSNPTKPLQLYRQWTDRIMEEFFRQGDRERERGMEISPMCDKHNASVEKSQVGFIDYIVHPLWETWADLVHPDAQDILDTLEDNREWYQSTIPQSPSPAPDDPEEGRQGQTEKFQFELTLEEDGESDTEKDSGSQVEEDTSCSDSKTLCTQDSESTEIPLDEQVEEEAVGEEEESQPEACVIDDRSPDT

Regarding `NS(=O)(=O)c1cc(C(=O)O)cc(N2CCCC2)c1Oc1ccccc1` [PIRETANIDE], the half-maximal activity concentration (AC50) (on Adenosine receptor A1; in experiment [1]; in experiment [2]; in experiment [3]; on B2 bradykinin receptor; in experiment [4]) was greater than 30 µM each time. The concentration at half-maximal activity (AC50) (at Melanocortin receptor 3; in experiment [5]; in experiment [6]; in experiment [7]; in [8]; at D(3) dopamine receptor) was greater than 30 µM throughout.

For the compound `COCCCOc1ccnc(C[S+]([O-])c2nc3ccccc3[nH]2)c1C` (stereo not given) [RABEPRAZOLE], the AC50 at Adenosine receptor A1 was 22.5 µM; in experiment [1], greater than 10 µM; in [2] it was greater than 10 µM; in [3], greater than 10 µM; at B2 bradykinin receptor it was greater than 30 µM; in experiment [4], greater than 10 µM. Also, the AC50 is greater than 30 µM at Melanocortin receptor 3; 20.5 µM in experiment [5]; greater than 10 µM in experiment [6]; 8 µM in experiment [7]; greater than 30 µM in [8]; greater than 10 µM on D(3) dopamine receptor.

For the compound `CC(C)=CCOc1ccc(/C=C/C(=O)c2ccc(OCC=C(C)C)cc2OCC(=O)O)cc1` [SOFALCONE], the AC50 on Adenosine receptor A1 is greater than 30 µM; in experiment [1] it was greater than 30 µM; in [2], greater than 30 µM; in experiment [3] it was 21 µM; on B2 bradykinin receptor, greater than 3 µM; in experiment [4], greater than 30 µM. Moreover, the AC50 on Melanocortin receptor 3 is greater than 30 µM; in experiment [5], greater than 30 µM; in experiment [6], 12 µM; in [7], greater than 30 µM; in experiment [8], greater than 30 µM; at D(3) dopamine receptor, greater than 30 µM.

Consider `CN(C)c1cc(NC(=O)CNC(C)(C)C)c(O)c2c1C[C@H]1C[C@H]3[C@H](N(C)C)C(O)=C(C(N)=O)C(=O)[C@@]3(O)C(O)=C1C2=O` [TIGECYCLINE], for which the AC50 (on Adenosine receptor A1; in [1]; in experiment [2]; in experiment [3]; at B2 bradykinin receptor; in [4]) was greater than 30 µM in each case. Besides, the AC50 (at Melanocortin receptor 3; in [5]; in [6]; in experiment [7]; in experiment [8]; at D(3) dopamine receptor) was greater than 30 µM throughout.

In the case of `OCCN1CCN(CC/C=C2/c3ccccc3Sc3ccc(Cl)cc32)CC1` [ZUCLOPENTHIXOL], the concentration at half-maximal activity (AC50) at Adenosine receptor A1 is greater than 10 µM; in experiment [1] it was 7.3 µM; in [2] it was 0.16 µM; in experiment [3] it was greater than 10 µM; at B2 bradykinin receptor it was greater than 10 µM; in experiment [4] it was greater than 10 µM. Besides, the AC50 at Melanocortin receptor 3 was greater than 10 µM; in [5], greater than 10 µM; in experiment [6], 1.94 µM; in [7] it was greater than 10 µM; in experiment [8], greater than 30 µM; on D(3) dopamine receptor, 0.046 µM.

Values taken from ChEMBL document CHEMBL5291721, “A preclinical secondary pharmacology resource illuminates target-adverse drug reaction associations of marketed drugs” (Nat Commun, 2023).
